Seven molecules from patent US7528138B2, “Pyrazolo[1,5-a]pyrimidines useful as inhibitors of protein kinases” (Vertex Pharmaceuticals Incorporated, priority 2004, dated 2009) can be followed below.

Some results are limits rather than exact numbers.

The target in assay [1] is c-Met (Homo sapiens, UniProt P08581). In words: c-Met Inhibition Assay, coupled enzyme system. The format is biochemical. The conditions noted are these: enzyme inhibition data (Ki), Table 11. The essentials:
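Pyruvate kinase/lactate dehydrogenase-coupled NADH assay in HEPES pH 7.5 with 80 nM c-Met, 200 μM ATP and 10 μM polyGluTyr at 30° C. Compound (0.006–12.5 μM final, 12-point) preincubated 10 min before ATP start; rates over 10 min gave Ki.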

Assay [2] has as its target T1, JAK3 (Homo sapiens, UniProt P52333).
T1 sequence (P52333 1-1124): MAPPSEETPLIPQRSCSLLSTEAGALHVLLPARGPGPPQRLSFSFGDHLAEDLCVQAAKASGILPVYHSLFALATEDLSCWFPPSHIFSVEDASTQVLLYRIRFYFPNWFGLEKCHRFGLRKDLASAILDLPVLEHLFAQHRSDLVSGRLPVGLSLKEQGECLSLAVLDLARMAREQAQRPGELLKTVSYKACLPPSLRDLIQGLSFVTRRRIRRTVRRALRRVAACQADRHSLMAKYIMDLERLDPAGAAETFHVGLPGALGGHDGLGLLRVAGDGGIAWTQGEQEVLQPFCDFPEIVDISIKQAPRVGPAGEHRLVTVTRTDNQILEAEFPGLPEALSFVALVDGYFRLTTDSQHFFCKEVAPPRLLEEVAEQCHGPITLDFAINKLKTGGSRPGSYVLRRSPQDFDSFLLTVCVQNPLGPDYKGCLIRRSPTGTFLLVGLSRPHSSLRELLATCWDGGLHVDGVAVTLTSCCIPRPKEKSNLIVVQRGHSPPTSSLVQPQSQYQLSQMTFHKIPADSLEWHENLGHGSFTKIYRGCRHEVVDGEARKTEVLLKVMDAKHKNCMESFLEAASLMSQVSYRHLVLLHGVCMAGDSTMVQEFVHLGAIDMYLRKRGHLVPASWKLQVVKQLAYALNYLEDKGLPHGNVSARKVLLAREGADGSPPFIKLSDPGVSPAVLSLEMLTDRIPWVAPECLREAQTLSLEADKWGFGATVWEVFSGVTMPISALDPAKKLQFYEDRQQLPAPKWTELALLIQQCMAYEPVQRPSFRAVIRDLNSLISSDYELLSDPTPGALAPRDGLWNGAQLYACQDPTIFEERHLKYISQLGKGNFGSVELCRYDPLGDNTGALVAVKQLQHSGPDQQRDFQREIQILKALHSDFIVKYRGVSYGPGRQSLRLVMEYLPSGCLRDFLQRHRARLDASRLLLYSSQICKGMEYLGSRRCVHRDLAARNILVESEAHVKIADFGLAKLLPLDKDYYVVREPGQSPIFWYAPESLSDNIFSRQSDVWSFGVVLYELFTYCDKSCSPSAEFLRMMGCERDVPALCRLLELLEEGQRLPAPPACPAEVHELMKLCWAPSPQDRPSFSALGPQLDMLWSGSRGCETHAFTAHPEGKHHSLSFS
In words: JAK3 Inhibition Assay, 33P incorporation. It counts as biochemical. The settings on record: enzyme inhibition data (Ki), Table 11. Put shortly:
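Recombinant JAK3 at 1 nM in HEPES pH 7.4 buffer with 10 mM MgCl2, 1 mM DTT and 0.01% BSA. Substrates were 5 μM ATP (200 uCi/μmole) and 1 μM poly(Glu)4Tyr, reacted 20 min at 25 °C. Stopped with TCA, and 33P incorporation counted on glass fiber filters.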

c-Met, sequence (P08581 25-1390): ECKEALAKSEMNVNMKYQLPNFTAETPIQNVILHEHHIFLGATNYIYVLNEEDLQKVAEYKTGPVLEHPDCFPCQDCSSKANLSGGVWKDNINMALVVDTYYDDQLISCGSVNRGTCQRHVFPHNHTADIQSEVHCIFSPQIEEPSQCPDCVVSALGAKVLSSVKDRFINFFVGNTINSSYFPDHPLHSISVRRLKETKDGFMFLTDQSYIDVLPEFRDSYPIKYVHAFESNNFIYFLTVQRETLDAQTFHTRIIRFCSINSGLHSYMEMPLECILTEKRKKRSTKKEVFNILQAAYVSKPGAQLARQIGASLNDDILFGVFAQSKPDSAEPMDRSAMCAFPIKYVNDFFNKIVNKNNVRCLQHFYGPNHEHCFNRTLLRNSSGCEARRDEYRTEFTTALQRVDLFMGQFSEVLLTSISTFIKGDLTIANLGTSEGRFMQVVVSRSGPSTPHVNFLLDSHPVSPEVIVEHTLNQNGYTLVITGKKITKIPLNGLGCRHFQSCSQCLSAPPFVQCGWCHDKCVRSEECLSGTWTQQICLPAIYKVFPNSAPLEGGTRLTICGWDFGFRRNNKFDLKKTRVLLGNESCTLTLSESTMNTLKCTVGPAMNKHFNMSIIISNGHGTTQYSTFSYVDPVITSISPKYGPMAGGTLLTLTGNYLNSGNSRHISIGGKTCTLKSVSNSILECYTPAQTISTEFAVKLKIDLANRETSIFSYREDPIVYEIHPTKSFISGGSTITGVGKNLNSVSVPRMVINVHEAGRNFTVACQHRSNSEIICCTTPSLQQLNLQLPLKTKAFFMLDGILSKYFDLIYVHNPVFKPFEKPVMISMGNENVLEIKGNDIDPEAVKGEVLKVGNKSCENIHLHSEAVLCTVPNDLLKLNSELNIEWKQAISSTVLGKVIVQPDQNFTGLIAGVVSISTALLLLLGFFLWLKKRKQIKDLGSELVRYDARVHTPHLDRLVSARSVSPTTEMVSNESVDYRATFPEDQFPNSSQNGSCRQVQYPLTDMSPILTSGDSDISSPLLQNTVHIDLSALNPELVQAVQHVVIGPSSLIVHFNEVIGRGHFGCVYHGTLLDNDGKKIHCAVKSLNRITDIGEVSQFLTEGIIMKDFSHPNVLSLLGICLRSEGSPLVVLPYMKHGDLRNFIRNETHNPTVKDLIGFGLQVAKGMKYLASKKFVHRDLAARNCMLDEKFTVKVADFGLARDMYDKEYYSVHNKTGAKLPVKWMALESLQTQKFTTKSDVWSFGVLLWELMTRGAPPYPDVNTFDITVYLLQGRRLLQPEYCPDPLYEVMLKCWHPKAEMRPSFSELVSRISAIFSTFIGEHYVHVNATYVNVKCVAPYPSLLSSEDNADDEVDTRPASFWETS

On to `CCN1CCN(C(=O)c2ccc(-c3cnc4c(-c5ccccn5)c(N)nn4c3)nc2)CC1` [Compound V-63], for which the Ki in assay [1] was below 500 nM; in assay [2], 500 to 5000 nM.

In the case of `Cc1cnc2c(-c3cc(NC4CCCCC4)ncn3)c(N)nn2c1` [Compound V-291], the Ki in assay [1] was below 500 nM; in assay [2], 500 to 5000 nM.

Take `CCN1CCN(C(=O)c2ccc(-c3cnc4c(-c5ccccn5)c(N)nn4c3)nc2)C(O)C1` (centres unmarked) [Compound V-78]: the Ki was below 500 nM in assay [1] and 500 to 5000 nM in assay [2].

With `Cc1cnc2c(-c3cc(NC4CCC4)ncn3)c(N)nn2c1` [Compound V-290], the Ki was below 500 nM in assay [1] and 500 to 5000 nM in assay [2].

In the case of `Cc1cnc2c(-c3cc(Nc4ccccc4)ncn3)c(N)nn2c1` [Compound V-279], the Ki in assay [1] and in assay [2] was below 500 nM each time.

With `C#CCN(C)C(=O)c1ccc(-c2cnc3c(-c4ccccn4)c(N)nn3c2)nc1` [Compound V-72], the Ki is below 500 nM in assay [1] and 500 to 5000 nM in assay [2].

Take `Nc1nn2cc(-c3ccc(C(=O)N4CCC[C@@H](O)C4)cn3)cnc2c1-c1ccccn1` [Compound V-79]: the values for the Ki in assay [1] and in assay [2] were below 500 nM and 500 to 5000 nM, respectively.

The term Ki denotes a measure of affinity in units of concentration, obtained from inhibition or displacement. Higher therefore signals lower affinity.
